Where a name gives a salt, the structure may show the parent alone. Read-outs that look alike come from different tables or passages of the source.

Some test systems named below: CHRF288-11; CMK; CMS; M07e; ML-2; MOLM-13; MV4-11; U937.
Set-up in all cases: species or system AML cell lines (8); Primary HTS, single concentration about 10 uM, Cell Titer Glo viability; log10 luminescence, per cent inhibition relative to cycloheximide control
Common to all, as to conditions: 72 h, relative to cycloheximide control, log10 luminescence, inhibitor
On the technique in general: Cellular ATP, detected with luciferase, serves as a proxy for viable cell number.

Take `CCC[C@@H]1CC2=CC(=O)CC[C@]2(C)[C@H]2CC[C@@]3(C)[C@@H](CC[C@@]3(O)CCC(=O)O)[C@H]12` [SJ000546509-1, RU 28318]: the CHRF288-11 %inh in the assay on CHRF288-11 was determined as 5.992%. Besides, the CMK %inh in the assay with CMK turned out to be 5.542%. Further, in the assay with CMS, the CMS %inh is on record as 2.41%. Besides, in the assay on M07e, the M07e %inh came out at 2.635%. Moreover, the ML-2 %inh with ML-2 is listed as 3.121%. Further, the MOLM-13 %inh in the assay on MOLM-13 turned out to be 5.695%. Moreover, the MV4-11 %inh with MV4-11 is recorded as 0.6325%. The U937 %inh in the assay with U937 is recorded as -0.6477%.
As to `COC(=O)/C=C/c1cccc(N(Cc2ccc(-c3ccc(N(C)C)cc3)cc2)C(=O)C2CCCCC2)c1` [SJ000546510-1, FEXARAMINE], the CHRF288-11 %inh in the assay with CHRF288-11 was -3.158%. Also, the CMK %inh with CMK was -0.2535%. Also, the CMS %inh in the assay with CMS was determined as 0.8467%. For the same compound, in the assay with M07e, the M07e %inh worked out at 1.611%. Further, the ML-2 %inh in the assay on ML-2 is 2.174%. For the same compound, the MOLM-13 %inh in the assay with MOLM-13 was -2.683%. For the same compound, the MV4-11 %inh in the assay with MV4-11 is reported as -0.6838%. Further, in the assay on U937, the U937 %inh was -1.175%.
As to `Clc1ccc(-c2nc3sccn3c2/C=N/OCc2ccc(Cl)c(Cl)c2)cc1` [SJ000546521-1, CITCO], in the assay with CHRF288-11, the CHRF288-11 %inh is given as 8.549%. For the same compound, the CMK %inh in the assay with CMK is -3.05%. Further, the CMS %inh with CMS is recorded as 0.2267%. Moreover, in the assay on M07e, the M07e %inh is reported as 0.1835%. In the assay with ML-2, the ML-2 %inh was -0.03995%. In addition, in the assay on MOLM-13, the MOLM-13 %inh is -1.049%. Also, the MV4-11 %inh in the assay with MV4-11 worked out at 0.01601%. Also, the U937 %inh with U937 is -0.9685%.
Take `Cc1ccc(C(=O)Cn2c3c(sc2=N)CCCC3)cc1` [SJ000546523-1, PIFITHRIN-ALPHA HYDROBROMIDE | PIFITHRIN-ALPHA HYDROBROMIDE | | PIFITHRIN-ALPHA (PFTALPHA)]: the CHRF288-11 %inh with CHRF288-11 is 6.15%. Further, the CMK %inh with CMK came out at 3.731%. Also, in the assay with CMS, the CMS %inh is 0.7689%. Also, the M07e %inh with M07e was 2.173%. Further, the ML-2 %inh in the assay with ML-2 was -0.3437%. For the same compound, in the assay with MOLM-13, the MOLM-13 %inh is on record as 4.765%. In addition, the MV4-11 %inh in the assay on MV4-11 was determined as 4.352%. Further, the U937 %inh in the assay on U937 is listed as -0.03033%.
In the case of `CN1C(=O)CC(C)(c2ccccc2)C1=O` (stereo not shown) [SJ000552432-1, METHSUXIMIDE], the CHRF288-11 %inh with CHRF288-11 worked out at 16.75%. Moreover, the CMK %inh in the assay with CMK was 0.7754%. In addition, the CMS %inh with CMS is -2.292%. Also, in the assay with M07e, the M07e %inh was 28%. The ML-2 %inh with ML-2 worked out at 19.33%. In addition, in the assay with MOLM-13, the MOLM-13 %inh was 28.78%. In the assay on MV4-11, the MV4-11 %inh was determined as 59.35%. In addition, the U937 %inh with U937 turned out to be 35.22%.
Take `COc1cc2c(cc1OC)C(=O)C(CC1CCN(Cc3ccccc3)CC1)C2` (stereo not shown) [SJ000555704-1, DONEPEZIL HYDROCHLORIDE]: in the assay with CHRF288-11, the CHRF288-11 %inh came out at 3.237%. Besides, in the assay with CMK, the CMK %inh turned out to be 10.45%. Further, the CMS %inh in the assay on CMS is on record as 6.718%. For the same compound, the M07e %inh with M07e came out at 3.462%. The ML-2 %inh with ML-2 was 0.002244%. For the same compound, in the assay with MOLM-13, the MOLM-13 %inh is recorded as 1.714%. Moreover, the MV4-11 %inh in the assay on MV4-11 was found to be 4.602%. Besides, the U937 %inh in the assay on U937 was found to be 1.153%.
Consider `C[C@]12C=CC(=O)C=C1CC[C@@H]1[C@@H]2[C@@H](O)C[C@@]2(C)[C@H]1CC[C@]2(O)C(=O)COP(=O)(O)O` [SJ000555709-1, PREDNISOLONE SODIUM PHOSPHATE], for which the CHRF288-11 %inh in the assay on CHRF288-11 amounted to 1.976%. In the assay with CMK, the CMK %inh came to 1.948%. Moreover, the CMS %inh in the assay on CMS worked out at 9.04%. Besides, the M07e %inh in the assay with M07e is recorded as -1.037%. For the same compound, the ML-2 %inh in the assay on ML-2 was -0.8263%. The MOLM-13 %inh with MOLM-13 is recorded as 2.036%. The MV4-11 %inh in the assay with MV4-11 is 1.456%. Moreover, in the assay on U937, the U937 %inh is listed as 2.195%.
For the compound `Cc1nnc(C(C)C)n1[C@@H]1C[C@H]2CC[C@@H](C1)N2CC[C@H](NC(=O)C1CCC(F)(F)CC1)c1ccccc1` [SJ000555710-1, MARAVIROC], the CHRF288-11 %inh in the assay with CHRF288-11 came to 3.241%. For the same compound, the CMK %inh with CMK is reported as -4.287%. The CMS %inh in the assay on CMS is reported as -2.259%. For the same compound, in the assay with M07e, the M07e %inh worked out at 0.2532%. The ML-2 %inh with ML-2 was -1.344%. In addition, the MOLM-13 %inh in the assay with MOLM-13 is -2.386%. For the same compound, the MV4-11 %inh with MV4-11 is listed as 0.334%. Further, the U937 %inh with U937 is -1.411%.
For `CC[C@@H]([C@H](C)O)n1ncn(-c2ccc(N3CCN(c4ccc(OC[C@@H]5CO[C@@](Cn6cncn6)(c6ccc(F)cc6F)C5)cc4)CC3)cc2)c1=O` [SJ000555711-1, POSACONAZOLE], the CHRF288-11 %inh in the assay with CHRF288-11 is listed as 4.654%. For the same compound, the CMK %inh in the assay with CMK is reported as -1.399%. The CMS %inh in the assay with CMS worked out at 1.852%. The M07e %inh in the assay on M07e is -0.5919%. In addition, in the assay on ML-2, the ML-2 %inh was -0.9552%. Also, the MOLM-13 %inh in the assay with MOLM-13 is given as -0.6762%. The MV4-11 %inh in the assay with MV4-11 was determined as 1.133%. The U937 %inh in the assay with U937 came out at 4.703%.
For `CCOC(=O)C1=C[C@@H](OC(CC)CC)[C@H](NC(C)=O)[C@@H](N)C1` [SJ000555712-1, OSELTAMIVIR PHOSPHATE], the CHRF288-11 %inh in the assay on CHRF288-11 is reported as -4.38%. In addition, in the assay on CMK, the CMK %inh is given as 1.207%. Further, in the assay on CMS, the CMS %inh worked out at 1.863%. Besides, in the assay on M07e, the M07e %inh was -1.677%. The ML-2 %inh in the assay on ML-2 is reported as 3.111%. Further, the MOLM-13 %inh with MOLM-13 is listed as -1.922%. In addition, the MV4-11 %inh in the assay on MV4-11 is reported as -1.699%. In addition, in the assay on U937, the U937 %inh was -0.7037%.
Turning to `CC(=O)O[C@H]1C[C@@H]2CC[C@@H]3[C@H](CC[C@@]4(C)[C@H]3C[C@H](N3CC[N+](C)(C)CC3)[C@@H]4OC(C)=O)[C@@]2(C)C[C@@H]1N1CC[N+](C)(C)CC1` [SJ000555714-1, PIPECURIUM BROMIDE], the CHRF288-11 %inh with CHRF288-11 was -2.142%. Moreover, the CMK %inh with CMK is on record as -9.103%. Further, the CMS %inh in the assay with CMS amounted to 0.5876%. For the same compound, in the assay on M07e, the M07e %inh is -1.4%. Moreover, the ML-2 %inh in the assay with ML-2 was found to be 0.08837%. For the same compound, in the assay on MOLM-13, the MOLM-13 %inh was -1.447%. Moreover, the MV4-11 %inh in the assay on MV4-11 came to 0.2738%. For the same compound, the U937 %inh in the assay on U937 is reported as -1.326%.
As to `CC[N+](C)(CC)CCOC(=O)C(O)(c1ccccc1)C1CCCCC1` (stereo not shown) [SJ000555718-1, OXYPHENONIUM BROMIDE], in the assay on CHRF288-11, the CHRF288-11 %inh is reported as 89.25%. In the assay on CMK, the CMK %inh was 0.4248%. Further, the CMS %inh with CMS is on record as -0.491%. Besides, the M07e %inh with M07e is -3.166%. For the same compound, in the assay on ML-2, the ML-2 %inh was found to be 3.325%. The MOLM-13 %inh in the assay on MOLM-13 is 7.019%. Further, in the assay on MV4-11, the MV4-11 %inh was 4.785%. Further, the U937 %inh with U937 is reported as 4.807%.
For `CC(C)(C)C(=O)Oc1ccc(S(=O)(=O)Nc2ccccc2C(=O)NCC(=O)O)cc1` [SJ000556638-2, SIVELESTAT SODIUM SALT], in the assay with CHRF288-11 (CHRF288-11 %inh, 10 µM), the CHRF288-11 %inh is recorded as 2.891%. For the same compound, the CMK %inh with CMK (CMK %inh, 10 µM) is recorded as -3.181%. In addition, the CMS %inh in the assay with CMS (CMS %inh, 10 µM) turned out to be 2.093%. In the assay on M07e (M07e %inh, 10 µM), the M07e %inh is recorded as 0.385%. Further, the ML-2 %inh in the assay on ML-2 (ML-2 %inh, 10 µM) was 1.02%. For the same compound, the MOLM-13 %inh in the assay with MOLM-13 (MOLM-13 %inh, 10 µM) was -1.5%. Besides, the MV4-11 %inh in the assay on MV4-11 (MV4-11 %inh, 10 µM) came to 2.862%. The U937 %inh in the assay on U937 (U937 %inh, 10 µM) is reported as -0.4301%.
With `CC(C)(C)C(=O)Oc1ccc(S(=O)(=O)Nc2ccccc2C(=O)NCC(=O)O)cc1` [SJ000556638-3, SIVELESTAT SODIUM SALT], in the assay with CHRF288-11 (CHRF288-11 %inh, 10 µM), the CHRF288-11 %inh was -1.426%. The CMK %inh in the assay with CMK (CMK %inh, 10 µM) is on record as -2.417%. In addition, the CMS %inh in the assay with CMS (CMS %inh, 10 µM) is -1.314%. In addition, in the assay with M07e (M07e %inh, 10 µM), the M07e %inh was determined as 0.5204%. Besides, the ML-2 %inh in the assay on ML-2 (ML-2 %inh, 10 µM) is listed as 0.7785%. The MOLM-13 %inh in the assay with MOLM-13 (MOLM-13 %inh, 10 µM) is on record as -1.044%. Also, in the assay on MV4-11 (MV4-11 %inh, 10 µM), the MV4-11 %inh is -1.916%. Further, in the assay with U937 (U937 %inh, 10 µM), the U937 %inh is listed as -0.2709%.

Values taken from article PMC6522510 (Nature Communications, 2019).
